Read-outs that look alike come from different tables or passages of the source.
Columns and labels:
[1] = molecular target: T1, Recombinant STAT6 protein (STAT6 (W123-T658)) (Homo sapiens, UniProt P42226); test: STAT6 Fluorescence Polarization (FP) Assay; format: binding; conditions: probe 5-FAM-Ap[…]-NH2 2 nM, 45-minute incubation
T1 construct: Recombinant STAT6 protein (STAT6 (W123-T658))
T1 sequence (P42226 123-658): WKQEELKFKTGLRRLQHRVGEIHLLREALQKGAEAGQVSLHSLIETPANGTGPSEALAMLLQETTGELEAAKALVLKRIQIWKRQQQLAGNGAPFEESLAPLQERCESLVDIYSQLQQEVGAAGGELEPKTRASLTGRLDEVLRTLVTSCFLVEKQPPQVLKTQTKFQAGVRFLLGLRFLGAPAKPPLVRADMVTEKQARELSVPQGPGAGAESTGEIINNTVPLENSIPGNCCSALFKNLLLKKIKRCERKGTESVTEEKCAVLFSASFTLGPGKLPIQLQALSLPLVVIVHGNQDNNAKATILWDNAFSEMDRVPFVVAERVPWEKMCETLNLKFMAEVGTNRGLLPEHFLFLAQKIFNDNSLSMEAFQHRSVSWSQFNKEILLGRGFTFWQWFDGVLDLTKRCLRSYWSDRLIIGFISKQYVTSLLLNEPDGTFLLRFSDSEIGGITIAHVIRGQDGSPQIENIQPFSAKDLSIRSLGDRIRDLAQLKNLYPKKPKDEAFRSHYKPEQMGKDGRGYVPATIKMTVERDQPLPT
Outline: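 Fluorescence polarization (mP) read-out: 250 nM STAT6 (W123-T658) plus 2 nM 5-FAM phosphotyrosine peptide, 45 min, room temperature, 1% DMSO. IC50 by nonlinear fit of mP against log compound concentration.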

[2] = molecular target: T2, Recombinant STAT3 protein (STAT3 (G127-I722)) (Homo sapiens, UniProt P40763); test: STAT3 Fluorescence Polarization (FP) Assay; format: binding; conditions: probe 5-FAM-GpYLPQTV-NH2 2 nM, 45-minute incubation
T2 construct: Recombinant STAT3 protein (STAT3 (G127-I722))
T2 sequence (P40763 127-722): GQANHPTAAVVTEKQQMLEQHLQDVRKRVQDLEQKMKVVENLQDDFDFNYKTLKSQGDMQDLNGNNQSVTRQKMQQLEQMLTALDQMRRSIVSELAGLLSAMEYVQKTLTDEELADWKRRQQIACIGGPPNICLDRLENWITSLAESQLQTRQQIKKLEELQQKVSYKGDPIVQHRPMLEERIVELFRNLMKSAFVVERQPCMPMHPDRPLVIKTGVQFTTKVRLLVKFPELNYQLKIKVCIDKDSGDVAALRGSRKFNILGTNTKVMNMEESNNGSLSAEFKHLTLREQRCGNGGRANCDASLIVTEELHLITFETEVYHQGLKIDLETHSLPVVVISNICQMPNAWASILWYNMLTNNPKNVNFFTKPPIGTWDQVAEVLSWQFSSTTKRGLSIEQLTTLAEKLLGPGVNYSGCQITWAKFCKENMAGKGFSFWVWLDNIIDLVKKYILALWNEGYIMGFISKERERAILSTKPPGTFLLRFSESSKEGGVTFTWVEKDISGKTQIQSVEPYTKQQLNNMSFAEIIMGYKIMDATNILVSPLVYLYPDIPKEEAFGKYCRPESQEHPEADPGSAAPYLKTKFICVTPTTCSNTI
Outline: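 Displacement of a 2 nM 5-FAM-labelled pY peptide (GpYLPQTV) from 25 nM recombinant STAT3 (G127-I722) was monitored by fluorescence polarization. Incubation lasted 45 min at room temperature in pH 7.4 HEPES buffer containing 1% DMSO.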

[3] = STAT6 (W123-T658) 250 nM, read-out: STAT6 (FP assay IC50 class)
[4] = STAT3 (G127-I722) 25 nM, read-out: STAT3 (FP assay IC50 class)

Compound: O=C(N[C@H]1CCC[C@H]2CC[C@@H](C(=O)N3CC(c4ncncc4F)C3)N2C1=O)c1cc2cc(C(F)P(=O)(O)O)ccc2s1 (stereo partly drawn) [Compound 583, (fluoro(2-(((3S,6S,9aS)-3-(3-(5-fluoropyrimidin-4-yl)azetidine-1-carbonyl)-5-oxooctahydro-1H-pyrrolo[1,2-a]azepin-6-yl)carbamoyl)benzo[b]thiophen-5-yl)methyl)phosphonic acid]
- IC50 [1, 3]: 3 to 30 µM
- IC50 [2, 4]: 0.1 to 1 µM

Compound: COc1ccn(C2CN(C(=O)[C@@H]3CC[C@@H]4CCC[C@H](NC(=O)c5cc6cc(C(F)P(=O)(O)O)ccc6s5)C(=O)N43)C2)n1 (stereo partly drawn) [Compound 633, (fluoro(2-(((3S,6S,9aS)-3-(3-(3-methoxy-1H-pyrazol-1-yl)azetidine-1-carbonyl)-5-oxooctahydro-1H-pyrrolo[1,2-a]azepin-6-yl)carbamoyl)benzo [b]thiophen-5-yl)methyl) phosphonic acid]
- IC50 [1, 3]: 3 to 30 µM
- IC50 [2, 4]: 0.1 to 1 µM

Compound: N#CC1CN(C(=O)[C@@H]2CC[C@@H]3CCC[C@H](NC(=O)c4cc5cc(C(F)(F)P(=O)(O)O)ccc5s4)C(=O)N32)C1 [Compound 780, ((2-(((3S,6S,9aS)-3-(3-cyanoazetidine-1-carbonyl)-5-oxooctahydro-1H-pyrrolo[1,2-a]azepin-6-yl)carbamoyl)benzo [b]thiophen-5-yl)difluoromethyl) phosphonic acid]
- IC50 [1, 3]: 0.3 to 3 µM
- IC50 [2, 4]: 0.1 to 1 µM

Compound: COc1c(C2CN(C(=O)[C@@H]3CC[C@@H]4CCC[C@H](NC(=O)c5cc6cc(C(F)P(=O)(O)O)ccc6s5)C(=O)N43)C2)cnn1C (stereo partly drawn) [Compound 629, (fluoro(2-(((3S,6S,9aS)-3-(3-(5-methoxy-1-methyl-1H-pyrazol-4-yl)azetidine-1-carbonyl)-5-oxooctahydro-1H-pyrrolo[1,2-a]azepin-6-yl)carbamoyl)benzo [b]thiophen-5-yl)methyl) phosphonic acid]
- IC50 [1, 3]: 3 to 30 µM
- IC50 [2, 4]: 0.1 to 1 µM

Compound: O=C(N[C@H]1CCC[C@H]2CC[C@@H](C(=O)N3CC(c4cnccc4N4CC(C(F)F)C4)C3)N2C1=O)c1cc2cc(CP(=O)(O)O)ccc2s1 [Compound 691, ((2-(((3S,6S,9aS)-3-(3-(4-(3-(difluoromethyl)azetidin-1-yl)pyridin-3-yl)azetidine-1-carbonyl)-5-oxooctahydro-1H-pyrrolo[1,2-a]azepin-6-yl)carbamoyl)benzo [b]thiophen-5-yl)methyl) phosphonic acid]
- IC50 [1, 3]: 3 to 30 µM
- IC50 [2, 4]: < 0.1 µM

Compound: O=C(N[C@H]1CCC[C@H]2CC[C@@H](C(=O)N3CC(c4ncc(C5CC5)cn4)C3)N2C1=O)c1cc2cc(C(F)(F)P(=O)(O)O)ccc2s1 [Compound 817, ((2-(((3S,6S,9aS)-3-(3-(5-cyclopropyl-pyrimidin-2-yl)azetidine-1-carbonyl)-5-oxooctahydro-1H-pyrrolo[1,2-a]azepin-6-yl)carbamoyl)benzo [b]thiophen-5-yl)difluoromethyl) phosphonic acid]
- IC50 [1, 3]: 3 to 30 µM
- IC50 [2, 4]: 1 to 10 µM

Compound: C[C@@H]1C[C@H]2CC[C@@H](C(=O)N3CC(c4cnccc4F)C3)N2C(=O)[C@@H](NC(=O)c2cc3cc(C(F)P(=O)(O)O)ccc3s2)C1 (stereo partly drawn) [Compound 209, (fluoro(2-(((3S,6S,8S,9aR)-3-(3-(4-fluoropyridin-3-yl)azetidine-1-carbonyl)-8-methyl-5-oxooctahydro-1H-pyrrolo[1,2-a]azepin-6-yl)carbamoyl)benzo[b]thiophen-5-yl)methyl)phosphonic acid]
- IC50 [1, 3]: 0.3 to 3 µM
- IC50 [2, 4]: < 0.1 µM

Compound: Cn1ccc(C2CN(C(=O)[C@@H]3CC[C@@H]4CCCC[C@H](NC(=O)c5cc6cc(C(F)P(=O)(O)O)ccc6s5)C(=O)N43)C3(CC3)C2)cc1=O (stereo partly drawn) [Compound 898, (fluoro(2-(((3S,6S,10aS)-3-(6-(1-methyl-2-oxo-1,2-dihydropyridin-4-yl)-4-azaspiro[2.4]heptane-4-carbonyl)-5-oxodecahydropyrrolo [1,2-a]azocin-6-yl)carbamoyl)benzo [b]thiophen-5-yl)methyl) phosphonic acid]
- IC50 [1, 3]: ≤ 0.3 µM
- IC50 [2, 4]: 1 to 10 µM

Compound: CNc1c(F)cncc1C1CN(C(=O)[C@@H]2CC[C@@H]3CCC[C@H](NC(=O)c4cc5cc([C@H](F)P(=O)(O)O)ccc5s4)C(=O)N32)C1 (single isomer, unassigned) [Compound 703]
- IC50 [1, 3]: 3 to 30 µM
- IC50 [2, 4]: < 0.1 µM

Compound: Cn1c(C2CN(C(=O)[C@@H]3CC[C@@H]4CCCC[C@H](NC(=O)c5cc6cc(C(F)(F)P(=O)(O)O)ccc6s5)C(=O)N43)C2)nc2ccccc21 [Compound 38, (difluoro(2-(((3S,6S,10aS)-3-(3-(1-methyl-1H-benzo[d]imidazol-2-yl)azetidine-1-carbonyl)-5-oxodecahydropyrrolo [1,2-a]azocin-6-yl)carbamoyl)benzo[b]thiophen-5-yl)methyl) phosphonic acid]
- IC50 ([1]; STAT6 250 nM, read-out: STAT6 (FP assay IC50)): 0.3 to 3 µM
- IC50 ([2]; STAT3 25 nM, read-out: STAT3 (FP assay IC50)): < 0.1 µM

Compound: NC(=O)N1CC[C@@H](NC(=O)[C@@H]2CC[C@@H]3CCCC[C@H](NC(=O)c4cc5cc(C(F)P(=O)(O)O)ccc5s4)C(=O)N32)C1 (stereo partly drawn) [Compound 532, ((2-(((3S,6S,10aS)-3-(((R)-1-carbamoylpyrrolidin-3-yl)carbamoyl)-5-oxodecahydropyrrolo[1,2-a]azocin-6-yl)carbamoyl)benzo[b]thiophen-5-yl)fluoromethyl)phosphonic acid]
- IC50 [1, 3]: 3 to 30 µM
- IC50 [2, 4]: < 0.1 µM

Compound: O=C(N[C@H]1CCCC[C@H]2CC[C@@H](C(=O)N3C[C@@H](c4cc[nH]c(=O)c4)CC34CC4)N2C1=O)c1ccc2ccc(CP(=O)(O)O)cc2c1 [Compound 883, ((7-(((3S,6S,10aS)-5-oxo-3-((R)-6-(2-oxo-1,2-dihydropyridin-4-yl)-4-azaspiro[2.4]heptane-4-carbonyl)decahydropyrrolo[1,2-a]azocin-6-yl)carbamoyl)naphthalen-2-yl)methyl) phosphonic acid]
- IC50 [1, 3]: 0.3 to 3 µM
- IC50 [2, 4]: 1 to 10 µM

Compound: O=C(N[C@H]1CCCC[C@H]2CC[C@@H](C(=O)NCc3cnc4[nH]ncc4c3)N2C1=O)c1cc2cc(C(F)(F)P(=O)(O)O)ccc2s1 [Compound 1108, ((2-(((3S,6S,10aS)-3-(((1H-pyrazolo[3,4-b]pyridin-5-yl)methyl)carbamoyl)-5-oxodecahydropyrrolo[1,2-a]azocin-6-yl)carbamoyl)benzo[b]thiophen-5-yl)difluoromethyl)phosphonic acid]
- IC50 [1, 3]: 3 to 30 µM
- IC50 [2, 4]: 0.1 to 1 µM

Compound: COC[C@@H]1CCN1c1ccncc1C1CN(C(=O)[C@@H]2CC[C@@H]3CCC[C@H](NC(=O)c4cc5cc([C@@H](F)P(=O)(O)O)ccc5s4)C(=O)N32)C1 [Compound 926, ((S)-fluoro(2-(((3S,6S,9aS)-3-(3-(4-((S)-2-(methoxymethyl)azetidin-1-yl)pyridin-3-yl)azetidine-1-carbonyl)-5-oxooctahydro-1H-pyrrolo[1,2-a]azepin-6-yl)carbamoyl)benzo [b]thiophen-5-yl)methyl) phosphonic acid]
- IC50 [1, 3]: 3 to 30 µM
- IC50 [2, 4]: < 0.1 µM

Compound: Cn1cc(C2CN(C(=O)[C@@H]3CC[C@@H]4CCC[C@H](NC(=O)c5cc6cc(C(F)P(=O)(O)O)ccc6s5)C(=O)N43)C2)c(F)n1 (stereo partly drawn) [Compound 715, (fluoro(2-(((3S,6S,9aS)-3-(3-(3-fluoro-1-methyl-1H-pyrazol-4-yl)azetidine-1-carbonyl)-5-oxooctahydro-1H-pyrrolo[1,2-a]azepin-6-yl)carbamoyl)benzo [b]thiophen-5-yl)methyl) phosphonic acid]
- IC50 [1, 3]: 3 to 30 µM
- IC50 [2, 4]: 0.1 to 1 µM

Compound: C[C@H]1C[C@H]2CC[C@@H](C(=O)N3C[C@@H](c4cccnc4)CC34CC4)N2C(=O)[C@@H](NC(=O)c2cc3cc([C@H](F)P(=O)(O)O)ccc3s2)C1 [Compound 834, ((R)-fluoro(2-(((3S,6S,8R,9aR)-8-methyl-5-oxo-3-((R)-6-(pyridin-3-yl)-4-azaspiro[2.4]heptane-4-carbonyl)octahydro-1H-pyrrolo[1,2-a]azepin-6-yl)carbamoyl)benzo [b]thiophen-5-yl)methyl) phosphonic acid]
- IC50 [1, 3]: ≤ 0.3 µM
- IC50 [2, 4]: 0.1 to 1 µM

Compound: O=C(N[C@H]1CCC[C@H]2CC[C@@H](C(=O)N3CCOC(c4cccnc4)C3)N2C1=O)c1cc2cc(C(F)(F)P(=O)(O)O)ccc2s1 (stereo partly drawn) [Compound 1124, (difluoro(2-(((3S,6S,9aS)-5-oxo-3-(2-(pyridin-3-yl)morpholine-4-carbonyl)octahydro-1H-pyrrolo[1,2-a]azepin-6-yl)carbamoyl)benzo[b]thiophen-5-yl)methyl)phosphonic acid]
- IC50 [1, 3]: ≤ 0.3 µM
- IC50 [2, 4]: 0.1 to 1 µM

Reference: patent publication US20250215029A1 (Recludix Pharma, Inc., priority 2022, published 2025)
